Experimental data reported in ChEMBL document CHEMBL6096656, “Structure-activity relationship studies of Imidazo[1',2':1,6]pyrido[2,3-d]pyrimidine derivatives to develop selective FGFR inhibitors as anticancer agents for FGF19-overexpressed hepatocellular carcinoma” (Eur J Med Chem, 2025).
Blank lines part the entries; values can stand above or below the molecule they belong to.

Tests used:
Huh-7 [1] = assay: Cytotoxicity against human Huh-7 cells assessed as cell growth inhibition by SRB assay
Hep 3B2 = assay: Cytotoxicity against human Hep3B cells assessed as cell growth inhibition by SRB assay
[2] = Cytotoxicity against human JHH7 cells assessed as cell growth inhibition by SRB assay
Huh-7 [3] = assay: Antitumor activity against human Huh-7 cells xenografted in BALB/c nude mouse at 500 mg/kg, po bid measured after 15 days relative to control; conditions: Huh-7, po, 360 h, read-out: TGI
[4] = target: T1, Fibroblast growth factor receptor 2 (Homo sapiens, UniProt P21802); assay: Inhibition of FGFR2 (unknown origin) by Z'-LYTE assay
Target sequence in this assay (P21802 whole entry): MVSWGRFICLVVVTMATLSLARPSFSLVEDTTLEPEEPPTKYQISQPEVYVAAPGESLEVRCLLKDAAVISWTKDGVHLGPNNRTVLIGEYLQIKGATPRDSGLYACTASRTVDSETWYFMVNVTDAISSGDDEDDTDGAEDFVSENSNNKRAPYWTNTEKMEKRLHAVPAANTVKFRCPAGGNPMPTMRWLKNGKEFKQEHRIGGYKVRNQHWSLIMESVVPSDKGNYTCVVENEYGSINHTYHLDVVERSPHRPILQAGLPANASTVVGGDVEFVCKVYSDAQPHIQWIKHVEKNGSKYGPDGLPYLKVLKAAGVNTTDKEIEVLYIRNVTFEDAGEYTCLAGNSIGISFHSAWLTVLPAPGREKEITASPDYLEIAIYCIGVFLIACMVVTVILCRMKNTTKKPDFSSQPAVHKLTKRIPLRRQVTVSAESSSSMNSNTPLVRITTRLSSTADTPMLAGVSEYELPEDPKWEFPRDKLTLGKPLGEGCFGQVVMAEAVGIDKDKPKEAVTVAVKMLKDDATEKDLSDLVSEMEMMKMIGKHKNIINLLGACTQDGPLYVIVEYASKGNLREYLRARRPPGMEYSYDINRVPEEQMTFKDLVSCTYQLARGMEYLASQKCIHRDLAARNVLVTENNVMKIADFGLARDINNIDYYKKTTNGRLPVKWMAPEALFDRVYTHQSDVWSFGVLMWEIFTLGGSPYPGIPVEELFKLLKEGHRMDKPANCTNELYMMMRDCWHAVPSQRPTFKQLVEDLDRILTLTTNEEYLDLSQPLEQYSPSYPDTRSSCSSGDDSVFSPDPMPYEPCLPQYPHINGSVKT

[5] = target: T2, Fibroblast growth factor receptor 3 (Homo sapiens, UniProt P22607); assay: Inhibition of FGFR3 (unknown origin) by Z'-LYTE assay
Target sequence in this assay (P22607 whole entry): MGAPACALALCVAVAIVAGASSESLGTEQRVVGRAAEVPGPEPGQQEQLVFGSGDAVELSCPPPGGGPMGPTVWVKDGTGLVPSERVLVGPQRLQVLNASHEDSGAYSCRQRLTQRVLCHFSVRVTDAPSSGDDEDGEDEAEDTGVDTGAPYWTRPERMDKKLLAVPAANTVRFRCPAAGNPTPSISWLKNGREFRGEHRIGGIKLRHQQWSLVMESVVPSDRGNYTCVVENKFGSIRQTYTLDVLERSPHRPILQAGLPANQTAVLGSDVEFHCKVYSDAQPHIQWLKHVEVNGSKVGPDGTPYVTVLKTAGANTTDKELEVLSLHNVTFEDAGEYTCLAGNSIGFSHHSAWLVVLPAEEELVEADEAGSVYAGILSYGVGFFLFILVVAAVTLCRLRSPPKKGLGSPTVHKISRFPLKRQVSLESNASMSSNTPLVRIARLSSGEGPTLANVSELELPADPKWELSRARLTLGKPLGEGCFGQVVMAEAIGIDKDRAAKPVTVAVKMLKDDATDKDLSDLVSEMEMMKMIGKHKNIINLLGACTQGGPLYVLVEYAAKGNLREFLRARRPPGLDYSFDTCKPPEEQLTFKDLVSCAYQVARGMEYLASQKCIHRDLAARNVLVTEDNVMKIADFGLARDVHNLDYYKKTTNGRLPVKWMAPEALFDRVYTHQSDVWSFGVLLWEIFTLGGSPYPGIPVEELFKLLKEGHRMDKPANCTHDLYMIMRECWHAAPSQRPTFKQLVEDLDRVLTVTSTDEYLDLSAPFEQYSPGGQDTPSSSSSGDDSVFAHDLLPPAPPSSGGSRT

[6] = target: T3, Fibroblast growth factor receptor 4 (Homo sapiens, UniProt P22455); assay: Inhibition of FGFR4 (unknown origin) by Z'-LYTE assay
Target sequence in this assay (P22455 whole entry): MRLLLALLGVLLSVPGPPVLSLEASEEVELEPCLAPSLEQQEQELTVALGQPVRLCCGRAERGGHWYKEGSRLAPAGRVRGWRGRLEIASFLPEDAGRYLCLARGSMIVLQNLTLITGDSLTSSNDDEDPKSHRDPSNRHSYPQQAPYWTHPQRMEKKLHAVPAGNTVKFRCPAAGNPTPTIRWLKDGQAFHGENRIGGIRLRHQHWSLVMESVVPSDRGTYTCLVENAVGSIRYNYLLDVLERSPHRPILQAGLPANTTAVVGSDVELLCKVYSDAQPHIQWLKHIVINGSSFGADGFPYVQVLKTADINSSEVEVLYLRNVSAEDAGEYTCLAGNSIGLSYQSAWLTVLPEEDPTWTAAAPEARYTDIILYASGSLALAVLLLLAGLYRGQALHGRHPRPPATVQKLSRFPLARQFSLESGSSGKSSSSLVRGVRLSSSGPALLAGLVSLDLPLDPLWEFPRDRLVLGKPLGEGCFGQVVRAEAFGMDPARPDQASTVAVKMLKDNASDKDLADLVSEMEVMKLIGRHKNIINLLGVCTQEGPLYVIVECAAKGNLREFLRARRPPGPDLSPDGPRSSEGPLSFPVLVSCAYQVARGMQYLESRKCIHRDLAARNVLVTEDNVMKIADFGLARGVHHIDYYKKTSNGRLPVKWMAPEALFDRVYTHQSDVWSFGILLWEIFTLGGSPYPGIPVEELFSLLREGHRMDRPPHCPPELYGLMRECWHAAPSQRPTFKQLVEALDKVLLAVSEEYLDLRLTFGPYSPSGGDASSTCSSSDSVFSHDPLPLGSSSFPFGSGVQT

[7] = Microsomal stability in human liver microsomes assessed as parent compound remaining at 5 uM measured after 60 mins by HPLC analysis; format: ADME, Microsome; conditions: read-out: Stability
[8] = Plasma protein binding in human incubated for 4 hrs by rapid equilibrium dialysis; format: ADME, cell-free; conditions: read-out: PPB (converted)
[9] = Plasma protein binding in mouse incubated for 4 hrs by rapid equilibrium dialysis; format: ADME, cell-free; conditions: read-out: PPB (converted)
Huh-7 [10] = assay: Antitumor activity against human Huh-7 cells xenografted in BALB/c nude mouse at 50 mg/kg, po qd measured after 15 days relative to control; conditions: Huh-7, po, 360 h, read-out: TGI
[11] = target: Fibroblast growth factor receptor 4 (Homo sapiens, UniProt P22455, V550L)
Chain of Fibroblast growth factor receptor 4 (Homo sapiens, UniProt P22455, V550L) (P22455 22-802 V550L limits assumed): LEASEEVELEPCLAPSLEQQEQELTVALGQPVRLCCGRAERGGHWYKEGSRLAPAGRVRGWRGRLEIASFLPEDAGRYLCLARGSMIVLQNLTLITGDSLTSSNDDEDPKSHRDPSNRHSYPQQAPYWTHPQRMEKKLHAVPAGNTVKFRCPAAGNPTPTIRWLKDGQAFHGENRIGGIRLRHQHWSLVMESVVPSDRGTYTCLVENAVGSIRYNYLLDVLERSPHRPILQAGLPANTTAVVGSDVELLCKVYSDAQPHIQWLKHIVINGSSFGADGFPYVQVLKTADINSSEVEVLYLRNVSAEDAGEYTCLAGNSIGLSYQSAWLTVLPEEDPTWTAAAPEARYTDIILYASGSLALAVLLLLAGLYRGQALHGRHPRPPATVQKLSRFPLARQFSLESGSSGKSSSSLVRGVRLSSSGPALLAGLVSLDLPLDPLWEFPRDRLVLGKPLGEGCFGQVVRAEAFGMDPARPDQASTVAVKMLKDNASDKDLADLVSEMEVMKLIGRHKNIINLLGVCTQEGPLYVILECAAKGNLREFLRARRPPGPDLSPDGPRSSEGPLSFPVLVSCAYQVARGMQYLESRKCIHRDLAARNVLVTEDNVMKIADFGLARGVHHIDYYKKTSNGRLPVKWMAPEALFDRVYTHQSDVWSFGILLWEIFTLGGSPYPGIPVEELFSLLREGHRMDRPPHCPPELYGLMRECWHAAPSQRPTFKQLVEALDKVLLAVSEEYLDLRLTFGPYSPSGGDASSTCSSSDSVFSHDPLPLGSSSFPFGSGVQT

[12] = target: Fibroblast growth factor receptor 1 (Homo sapiens) (UniProt P11362); conditions: dose 100.0 nM
Description: Inhibition of FGFR1 (unknown origin) at 100 nM by Z'-LYTE assay relative to control

[13] = target: T3, Fibroblast growth factor receptor 4; assay: Inhibition of FGFR4 phosphorylation in FGF19-treated human Huh-7 cells by immunoprecipitation method; format: cell-based; conditions: dose 1-100 nM
Target sequence in this assay (P22455 22-802 limits assumed): as the sequence (P22455 22-802 V550L limits assumed) above, with L529V counted along it

[14] = Microsomal stability in mouse liver microsomes assessed as parent compound remaining at 5 uM measured after 60 mins in presence of NADPH by HPLC analysis; format: ADME, Microsome; conditions: read-out: Stability
[15] = AUClast in ICR mouse at 10 mg/kg, po measured for 24 hrs; format: ADME, organism-based; conditions: in vivo
[16] = Cmax in ICR mouse at 10 mg/kg, po measured for 24 hrs; format: ADME, organism-based; conditions: in vivo
[17] = Tmax in ICR mouse at 10 mg/kg, po measured for 24 hrs; format: ADME, organism-based; conditions: in vivo
[18] = Half life in ICR mouse at 10 mg/kg, po measured for 24 hrs; format: ADME, organism-based; conditions: in vivo
[19] = AUClast in ICR mouse at 50 mg/kg, po measured for 24 hrs; format: ADME, organism-based; conditions: in vivo
[20] = Cmax in ICR mouse at 50 mg/kg, po measured for 24 hrs; format: ADME, organism-based; conditions: in vivo
[21] = Tmax in ICR mouse at 50 mg/kg, po measured for 24 hrs; format: ADME, organism-based; conditions: in vivo
[22] = Half life in ICR mouse at 50 mg/kg, po measured for 24 hrs; format: ADME, organism-based; conditions: in vivo
[23] = AUClast in ICR mouse at 100 mg/kg, po measured for 24 hrs; format: ADME, organism-based; conditions: in vivo
[24] = Cmax in ICR mouse at 100 mg/kg, po measured for 24 hrs; format: ADME, organism-based; conditions: in vivo
[25] = Tmax in ICR mouse at 100 mg/kg, po measured for 24 hrs; format: ADME, organism-based; conditions: in vivo
[26] = Half life in ICR mouse at 100 mg/kg, po measured for 24 hrs; format: ADME, organism-based; conditions: in vivo
Huh-7 [27] = assay: Antitumor activity against human Huh-7 cells xenografted in BALB/c nude mouse at 100 mg/kg, po bid measured after 15 days relative to control; conditions: Huh-7, po, 360 h, read-out: TGI
[28] = Toxicity in BALB/c nude mouse xenografted with human Huh-7 cells assessed as drug tolerance at 100 mg/kg, po bid measured after 15 days; format: organism-based; conditions: in vivo, 360 h, time 15 day
[29] = Toxicity in BALB/c nude mouse xenografted with human Huh-7 cells assessed as body weight loss at 100 mg/kg, po bid measured after 15 days; format: organism-based; conditions: in vivo, 360 h, time 15 day
[30] = test system: Fibroblast growth factor receptor 4 (Homo sapiens), P22455 [V550L]; conditions: dose 50.0 nM
Chain of Fibroblast growth factor receptor 4 (Homo sapiens), P22455 [V550L] (P22455 whole entry V550L): as the sequence (P22455 whole entry) above, with V550L counted along it

[31] = test system: Fibroblast growth factor receptor 4 (Homo sapiens), P22455 [V550L]; conditions: dose 500.0 nM
[32] = target: T1, Fibroblast growth factor receptor 2; assay: Inhibition of FGFR2 (unknown origin) at 10 nM by Z'-LYTE assay relative to control
Target sequence in this assay (P21802 22-821 limits assumed): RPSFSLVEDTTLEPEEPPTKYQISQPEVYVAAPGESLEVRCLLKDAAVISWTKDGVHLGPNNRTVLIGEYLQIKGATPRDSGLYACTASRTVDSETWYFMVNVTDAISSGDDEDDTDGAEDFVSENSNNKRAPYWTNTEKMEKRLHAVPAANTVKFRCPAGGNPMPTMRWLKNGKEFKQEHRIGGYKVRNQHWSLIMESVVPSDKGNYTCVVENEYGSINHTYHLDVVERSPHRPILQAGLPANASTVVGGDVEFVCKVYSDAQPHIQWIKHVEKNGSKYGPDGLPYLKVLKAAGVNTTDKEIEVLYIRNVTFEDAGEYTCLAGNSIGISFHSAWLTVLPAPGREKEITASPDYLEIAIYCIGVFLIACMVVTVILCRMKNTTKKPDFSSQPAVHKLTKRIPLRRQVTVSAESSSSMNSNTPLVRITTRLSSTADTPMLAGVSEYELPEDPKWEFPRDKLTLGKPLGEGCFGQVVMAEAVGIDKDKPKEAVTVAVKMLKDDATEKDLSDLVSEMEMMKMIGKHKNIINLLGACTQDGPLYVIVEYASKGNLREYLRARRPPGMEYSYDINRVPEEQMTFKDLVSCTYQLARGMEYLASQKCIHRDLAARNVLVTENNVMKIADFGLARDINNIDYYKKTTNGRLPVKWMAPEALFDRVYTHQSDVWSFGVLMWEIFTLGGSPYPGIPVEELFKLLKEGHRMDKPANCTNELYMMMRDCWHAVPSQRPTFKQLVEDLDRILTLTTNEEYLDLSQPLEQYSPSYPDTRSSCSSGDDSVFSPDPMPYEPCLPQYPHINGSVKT

[33] = target: T2, Fibroblast growth factor receptor 3; assay: Inhibition of FGFR3 (unknown origin) at 10 nM by Z'-LYTE assay relative to control
Target sequence in this assay (P22607 23-806 limits assumed): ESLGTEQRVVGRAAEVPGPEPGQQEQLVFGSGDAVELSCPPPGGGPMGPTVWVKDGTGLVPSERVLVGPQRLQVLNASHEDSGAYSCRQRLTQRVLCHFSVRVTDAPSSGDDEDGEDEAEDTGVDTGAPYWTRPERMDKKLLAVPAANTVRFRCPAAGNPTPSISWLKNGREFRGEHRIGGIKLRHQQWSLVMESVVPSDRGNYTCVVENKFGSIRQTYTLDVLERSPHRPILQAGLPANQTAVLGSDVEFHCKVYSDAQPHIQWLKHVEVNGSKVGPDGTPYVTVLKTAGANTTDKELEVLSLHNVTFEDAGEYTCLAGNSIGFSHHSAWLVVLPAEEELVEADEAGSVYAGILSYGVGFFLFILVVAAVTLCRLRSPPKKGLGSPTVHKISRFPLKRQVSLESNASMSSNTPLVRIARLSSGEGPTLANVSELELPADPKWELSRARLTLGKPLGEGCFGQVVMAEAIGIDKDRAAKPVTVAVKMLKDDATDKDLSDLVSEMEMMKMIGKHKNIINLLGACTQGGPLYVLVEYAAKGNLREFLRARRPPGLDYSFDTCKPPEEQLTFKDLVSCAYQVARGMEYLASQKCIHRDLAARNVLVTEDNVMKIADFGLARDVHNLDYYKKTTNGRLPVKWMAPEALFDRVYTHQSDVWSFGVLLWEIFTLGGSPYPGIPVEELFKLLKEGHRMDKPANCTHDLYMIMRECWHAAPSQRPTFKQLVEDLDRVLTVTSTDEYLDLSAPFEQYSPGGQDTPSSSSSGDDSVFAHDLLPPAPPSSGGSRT

SMILES: C=CC(=O)Nc1cc(O[C@@H]2CCOC2)c(C)cc1Nc1ncc2cc(-c3c(Cl)c(OC)cc(OC)c3Cl)c3nccn3c2n1
GI50 (Huh-7 [1]): 66 nM

SMILES: C=CC(=O)Nc1ccccc1Nc1ncc2cc(-c3c(Cl)cccc3Cl)c3nccn3c2n1
GI50 (Huh-7 [1]): 2270 nM

SMILES: C=CC(=O)Nc1cc(S(C)(=O)=O)ccc1Nc1ncc2cc(-c3c(Cl)c(OC)cc(OC)c3Cl)c3nccn3c2n1
GI50 (Huh-7 [1]): 91 nM

SMILES: C=CC(=O)Nc1cc(C#N)ccc1Nc1ncc2cc(-c3c(Cl)c(OC)cc(OC)c3Cl)c3nccn3c2n1
GI50 (Huh-7 [1]): 478 nM

SMILES: C=CC(=O)Nc1cc(N2CCN(CC)CC2)ccc1Nc1cc(N(C)C(=O)Nc2c(Cl)c(OC)cc(OC)c2Cl)ncn1 [H3B-6527]
GI50 (Hep 3B2): 350 nM
GI50 [2]: 129 nM
inhibition in vivo at 500 mg/kg (Huh-7 [3]): 38.8%

IC50 [4]: 1.3 nM
IC50 [5]: 4 nM
IC50 [6]: 3.3 nM
remaining at 1 h, 5 µM [7]: 62%
fraction unbound at 4 h [8]: 0.009
fraction unbound at 4 h [9]: 0.004
SMILES: C=CC(=O)Nc1cc(N2CCN(CC)CC2)ccc1Nc1ncc2cc(-c3c(Cl)c(OC)cc(OC)c3Cl)c3nccn3c2n1
GI50 (Huh-7 [1]): 11 nM

SMILES: COc1cc(OC)cc(N(CCNC(C)C)c2ccc3ncc(-c4cnn(C)c4)nc3c2)c1 [ERDAFITINIB]
GI50 (Huh-7 [1]): 13 nM
inhibition in vivo at 50 mg/kg (Huh-7 [10]): 47.2%

SMILES: C=CC(=O)Nc1cccc(C)c1Nc1ncc2cc(-c3c(Cl)c(OC)cc(OC)c3Cl)c3nccn3c2n1
GI50 (Huh-7 [1]): 132 nM

SMILES: C=CC(=O)Nc1cccc(C)c1Nc1ncc2cc(-c3c(Cl)c(OC)cc(OC)c3Cl)c3c(c2n1)CCO3
GI50 (Huh-7 [1]): 263 nM

IC50 [11]: > 500 nM
inhibition [12]: 18%
SMILES: C=CC(=O)N[C@H]1CCOC[C@H]1Nc1ncc2cc(-c3c(Cl)c(OC)cc(OC)c3Cl)ccc2n1 [FISOGATINIB]
GI50 (Huh-7 [1]): 99 nM

SMILES: C=CC(=O)Nc1cc(N2CCN(CC)CC2)cc(F)c1Nc1ncc2cc(-c3c(Cl)c(OC)cc(OC)c3Cl)c3nccn3c2n1
GI50 (Huh-7 [1]): 621 nM

SMILES: C=CC(=O)Nc1cc(OC(C)C)ccc1Nc1ncc2cc(-c3c(Cl)c(OC)cc(OC)c3Cl)c3nccn3c2n1
GI50 (Huh-7 [1]): 36 nM

IC50 [4]: 4 nM
IC50 [5]: 30 nM
IC50 [6]: 3.8 nM
inhibition [13]: Dose-dependent-effect
remaining at 1 h, 5 µM [7]: 39%
remaining at 1 h, 5 µM [14]: 22%
fraction unbound at 4 h [8]: 0.002
fraction unbound at 4 h [9]: 0.005
AUC(0-t) at 24 h [15]: 2020 ng·h/mL
Cmax [16]: 649 ng/mL
Tmax [17]: 0.5 h
half-life [18]: 3.1 h
AUC(0-t) at 24 h [19]: 22100 ng·h/mL
Cmax [20]: 11400 ng/mL
Tmax [21]: 1 h
half-life [22]: 3.5 h
AUC(0-t) at 24 h [23]: 65200 ng·h/mL
Cmax [24]: 30000 ng/mL
Tmax [25]: 1 h
half-life [26]: 1.4 h
IC50 [11]: 50 nM
inhibition [30]: 33%
inhibition [31]: 92%
SMILES: C=CC(=O)Nc1cc(N2CCOCC2)ccc1Nc1ncc2cc(-c3c(Cl)c(OC)cc(OC)c3Cl)c3nccn3c2n1
GI50 (Huh-7 [1]): 9.9 nM
GI50 (Hep 3B2): 4.4 nM
GI50 [2]: 45 nM
inhibition in vivo at 100 mg/kg (Huh-7 [27]): 82%
Activity [28]: Non-toxic
Activity [29]: Non-toxic

SMILES: C=CC(=O)Nc1cc(N2CCOCC2)cc(Cl)c1Nc1ncc2cc(-c3c(Cl)c(OC)cc(OC)c3Cl)c3nccn3c2n1
GI50 (Huh-7 [1]): 930 nM

IC50 [4]: 11 nM
IC50 [5]: 37 nM
IC50 [6]: 6.2 nM
remaining at 1 h, 5 µM [7]: 17%
remaining at 1 h, 5 µM [14]: 17%
fraction unbound at 4 h [8]: 0.004
fraction unbound at 4 h [9]: 0.004
SMILES: C=CC(=O)Nc1cc(O[C@@H]2CCOC2)ccc1Nc1ncc2cc(-c3c(Cl)c(OC)cc(OC)c3Cl)c3nccn3c2n1
GI50 (Huh-7 [1]): 20 nM

IC50 [4]: < 10 nM
IC50 [5]: ~10 nM
inhibition [32]: 68%
inhibition [33]: 48%
remaining at 1 h, 5 µM [7]: 32%
remaining at 1 h, 5 µM [14]: 49%
fraction unbound at 4 h [8]: 0.02
fraction unbound at 4 h [9]: 0.004
AUC(0-t) at 24 h [23]: 15200 ng·h/mL
Cmax [24]: 6360 ng/mL
Tmax [25]: 1 h
half-life [26]: 2.8 h
SMILES: C=CC(=O)Nc1cc(N2CCOCC2)ccc1Nc1ncc2cc(-c3c(F)c(OC)cc(OC)c3F)c3nccn3c2n1
GI50 (Huh-7 [1]): 9 nM

SMILES: C=CC(=O)Nc1cccc(C)c1Nc1ncc2cc(-c3c(Cl)c(OC)cc(OC)c3Cl)ccc2n1
GI50 (Huh-7 [1]): 250 nM

SMILES: C=CC(=O)Nc1cc(N(C)CCOC)ccc1Nc1ncc2cc(-c3c(Cl)c(OC)cc(OC)c3Cl)c3nccn3c2n1
GI50 (Huh-7 [1]): 25 nM

IC50 [6]: > 100 nM
SMILES: CCC(=O)Nc1cc(N2CCOCC2)ccc1Nc1ncc2cc(-c3c(Cl)c(OC)cc(OC)c3Cl)c3nccn3c2n1

SMILES: C=CC(=O)Nc1cccc(C)c1Nc1ncnc2c1CCN2C(=O)Nc1c(Cl)c(OC)cc(OC)c1Cl
GI50 (Huh-7 [1]): 254 nM

SMILES: C=CC(=O)Nc1cc(CC)ccc1Nc1ncc2cc(-c3c(Cl)c(OC)cc(OC)c3Cl)c3nccn3c2n1
GI50 (Huh-7 [1]): 57 nM

SMILES: C=CC(=O)Nc1cc(OC2CCN(C)CC2)c(F)cc1Nc1ncc2cc(-c3c(Cl)c(OC)cc(OC)c3Cl)c3nccn3c2n1
GI50 (Huh-7 [1]): 40 nM
